From US9540348B2, “Imidazole-1-yl pyrimidine derivatives, or pharmacutically acceptable salt thereof, and pharmaceutic composition comprising the same as an active ingredient” (Industry-University Cooperation Foundation Hanyang …, priority 2015, dated 2017)
Entries after “also recorded” stand apart in the source; their conditions may differ.

Legend:
[1] = tested on: most other kinases except cKit (KIT) and p38a (MAPK14); test: Kinase panel screening, summary for the other kinases; assay type: biochemical; details: 10 μM concentration
Protocol: (§1) To Compound 10c of Example 23, kinase panel screening was carried out to 32 kinds of kinases in 10 μM concentration and the results are listed in the following Table 2.

SYK = SYK (Homo sapiens, UniProt P43405); test: Kinase panel screening; assay type: biochemical; details: 10 μM concentration; read-out: Inhibition Rate (Unit: %) SYK
Protocol: as §1

FLT3 = FLT3 (Homo sapiens, UniProt P36888); test: Kinase panel screening; assay type: biochemical; details: 10 μM concentration; read-out: Inhibition Rate (Unit: %) FLT3
Protocol: as §1

GSK3b = GSK3b (Homo sapiens, UniProt P49841); test: Kinase panel screening; assay type: biochemical; details: 10 μM concentration; read-out: Inhibition Rate (Unit: %) GSK3b
Protocol: as §1

Aurora A = Aurora A (Homo sapiens, UniProt O14965); test: Kinase panel screening; assay type: biochemical; details: 10 μM concentration; read-out: Inhibition Rate (Unit: %) Aurora A
Protocol: as §1

CDK1/cyclin B = CDK1/cyclin B (Homo sapiens, UniProt P06493); test: Kinase panel screening; assay type: biochemical; details: 10 μM concentration; read-out: Inhibition Rate (Unit: %) CDK1/cyclin B
CDK1/cyclin B, sequence (P06493 whole entry, species assumed): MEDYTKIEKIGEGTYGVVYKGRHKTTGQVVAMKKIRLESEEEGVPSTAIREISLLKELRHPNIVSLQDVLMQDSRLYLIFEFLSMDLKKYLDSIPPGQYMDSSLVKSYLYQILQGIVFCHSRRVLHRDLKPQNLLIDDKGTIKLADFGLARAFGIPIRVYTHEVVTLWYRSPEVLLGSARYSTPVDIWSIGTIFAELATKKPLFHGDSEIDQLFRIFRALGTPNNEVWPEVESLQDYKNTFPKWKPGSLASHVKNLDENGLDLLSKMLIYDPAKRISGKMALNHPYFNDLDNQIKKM
CDK1/cyclin B, sequence (P14635 whole entry partner, species assumed): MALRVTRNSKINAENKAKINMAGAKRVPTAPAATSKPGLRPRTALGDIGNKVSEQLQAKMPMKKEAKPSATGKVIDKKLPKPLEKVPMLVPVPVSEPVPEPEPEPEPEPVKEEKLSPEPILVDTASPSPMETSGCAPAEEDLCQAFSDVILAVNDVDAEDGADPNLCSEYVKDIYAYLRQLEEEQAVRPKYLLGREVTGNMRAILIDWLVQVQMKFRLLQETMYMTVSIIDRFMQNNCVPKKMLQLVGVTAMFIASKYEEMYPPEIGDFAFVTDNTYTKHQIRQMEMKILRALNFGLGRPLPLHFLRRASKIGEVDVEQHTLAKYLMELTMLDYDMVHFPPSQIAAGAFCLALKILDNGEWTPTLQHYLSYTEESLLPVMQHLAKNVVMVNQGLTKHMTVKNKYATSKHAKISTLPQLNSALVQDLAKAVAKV
Protocol: as §1

mTOR/FRAP1 = mTOR/FRAP1 (Homo sapiens, UniProt P42345); test: Kinase panel screening; assay type: biochemical; details: 10 μM concentration; read-out: Inhibition Rate (Unit: %) mTOR/FRAP1
Protocol: as §1

RON/MST1R = RON/MST1R (Homo sapiens, UniProt Q04912); test: Kinase panel screening; assay type: biochemical; details: 10 μM concentration; read-out: Inhibition Rate (Unit: %) RON/MST1R
Protocol: as §1

IGF1R = IGF1R (Homo sapiens, UniProt P08069); test: Kinase panel screening; assay type: biochemical; details: 10 μM concentration; read-out: Inhibition Rate (Unit: %) IGF1R
Protocol: as §1

c-Src = c-Src (Homo sapiens, UniProt P12931); test: Kinase panel screening; assay type: biochemical; details: 10 μM concentration; read-out: Inhibition Rate (Unit: %) c-Src
Protocol: as §1

MEK1 = MEK1 (Homo sapiens, UniProt Q02750); test: Kinase panel screening; assay type: biochemical; details: 10 μM concentration; read-out: Inhibition Rate (Unit: %) MEK1
Protocol: as §1

P38a/MAPK14 = P38a/MAPK14 (Homo sapiens, UniProt Q16539); test: Kinase panel screening; assay type: biochemical; details: 10 μM concentration; read-out: Inhibition Rate (Unit: %) P38a/MAPK14
Protocol: as §1

ROS/ROS1 = ROS/ROS1 (Homo sapiens, UniProt P08922); test: Kinase panel screening; assay type: biochemical; details: 10 μM concentration; read-out: Inhibition Rate (Unit: %) ROS/ROS1
ROS/ROS1, sequence (P08922 28-2347): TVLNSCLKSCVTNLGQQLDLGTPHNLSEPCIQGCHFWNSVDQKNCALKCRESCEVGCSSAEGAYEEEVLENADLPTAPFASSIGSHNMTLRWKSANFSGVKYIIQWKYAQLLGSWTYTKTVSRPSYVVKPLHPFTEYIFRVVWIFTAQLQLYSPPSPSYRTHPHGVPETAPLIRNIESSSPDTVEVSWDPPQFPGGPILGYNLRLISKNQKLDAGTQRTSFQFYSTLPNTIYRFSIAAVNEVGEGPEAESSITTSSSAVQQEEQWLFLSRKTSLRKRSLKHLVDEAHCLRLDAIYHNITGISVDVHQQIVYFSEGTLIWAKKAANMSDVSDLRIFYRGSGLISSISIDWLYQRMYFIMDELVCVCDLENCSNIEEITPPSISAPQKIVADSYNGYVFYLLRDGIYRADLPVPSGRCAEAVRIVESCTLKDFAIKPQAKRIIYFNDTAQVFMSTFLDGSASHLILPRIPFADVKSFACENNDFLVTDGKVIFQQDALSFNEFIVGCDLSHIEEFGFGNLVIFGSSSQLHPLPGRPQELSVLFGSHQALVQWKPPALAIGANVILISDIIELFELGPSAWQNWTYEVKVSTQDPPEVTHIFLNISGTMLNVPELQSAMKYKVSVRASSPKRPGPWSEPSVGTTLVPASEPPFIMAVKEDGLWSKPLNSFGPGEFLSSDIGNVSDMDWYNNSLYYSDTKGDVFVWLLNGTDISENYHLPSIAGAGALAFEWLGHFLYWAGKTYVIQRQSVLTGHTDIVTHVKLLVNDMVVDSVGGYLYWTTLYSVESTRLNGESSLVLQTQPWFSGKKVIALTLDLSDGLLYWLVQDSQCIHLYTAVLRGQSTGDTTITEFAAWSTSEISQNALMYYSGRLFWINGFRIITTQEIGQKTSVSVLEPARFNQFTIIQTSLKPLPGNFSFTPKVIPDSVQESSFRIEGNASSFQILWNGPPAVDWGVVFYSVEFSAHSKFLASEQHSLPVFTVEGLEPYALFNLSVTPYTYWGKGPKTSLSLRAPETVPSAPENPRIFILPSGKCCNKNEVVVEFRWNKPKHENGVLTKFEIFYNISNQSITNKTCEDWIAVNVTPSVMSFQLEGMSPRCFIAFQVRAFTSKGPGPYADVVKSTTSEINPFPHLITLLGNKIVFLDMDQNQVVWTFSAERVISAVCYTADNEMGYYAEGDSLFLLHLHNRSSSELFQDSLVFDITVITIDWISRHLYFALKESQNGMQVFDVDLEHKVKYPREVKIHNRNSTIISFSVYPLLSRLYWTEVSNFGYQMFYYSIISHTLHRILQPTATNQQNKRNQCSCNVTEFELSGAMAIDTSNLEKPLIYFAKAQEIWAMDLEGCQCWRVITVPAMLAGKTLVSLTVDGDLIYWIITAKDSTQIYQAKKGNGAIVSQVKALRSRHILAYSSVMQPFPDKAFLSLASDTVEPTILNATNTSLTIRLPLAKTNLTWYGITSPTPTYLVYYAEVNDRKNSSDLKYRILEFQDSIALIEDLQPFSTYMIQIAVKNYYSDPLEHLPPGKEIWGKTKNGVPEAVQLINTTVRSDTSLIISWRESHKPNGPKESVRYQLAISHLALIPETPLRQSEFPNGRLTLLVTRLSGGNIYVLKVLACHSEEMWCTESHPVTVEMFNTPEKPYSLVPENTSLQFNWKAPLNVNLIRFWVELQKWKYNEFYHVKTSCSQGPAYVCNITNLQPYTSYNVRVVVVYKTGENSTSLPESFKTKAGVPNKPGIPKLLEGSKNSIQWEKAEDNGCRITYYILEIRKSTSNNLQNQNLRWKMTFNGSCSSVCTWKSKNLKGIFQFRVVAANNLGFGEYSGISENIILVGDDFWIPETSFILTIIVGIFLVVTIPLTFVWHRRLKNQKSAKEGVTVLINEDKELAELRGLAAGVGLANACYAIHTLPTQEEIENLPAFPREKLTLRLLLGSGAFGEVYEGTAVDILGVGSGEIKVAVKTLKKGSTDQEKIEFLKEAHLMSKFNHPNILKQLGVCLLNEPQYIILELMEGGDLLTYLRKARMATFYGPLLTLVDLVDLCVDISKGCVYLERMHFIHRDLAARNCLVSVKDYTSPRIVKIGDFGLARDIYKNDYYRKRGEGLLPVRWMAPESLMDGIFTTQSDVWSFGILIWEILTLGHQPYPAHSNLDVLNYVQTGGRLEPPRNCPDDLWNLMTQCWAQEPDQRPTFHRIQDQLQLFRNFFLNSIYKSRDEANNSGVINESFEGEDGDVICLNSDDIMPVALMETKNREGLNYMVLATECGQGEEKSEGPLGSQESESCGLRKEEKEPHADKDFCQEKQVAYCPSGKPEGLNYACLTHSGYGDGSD
Protocol: as §1

FGFR3 = FGFR3 (Homo sapiens, UniProt P22607); test: Kinase panel screening; assay type: biochemical; details: 10 μM concentration; read-out: Inhibition Rate (Unit: %) FGFR3
Protocol: as §1

PKA = test: Kinase panel screening; assay type: biochemical; details: 10 μM concentration
Protocol: as §1

RAF1 = RAF1 (Homo sapiens, UniProt P04049); test: Kinase panel screening; assay type: biochemical; details: 10 μM concentration
RAF1, sequence (P04049 whole entry): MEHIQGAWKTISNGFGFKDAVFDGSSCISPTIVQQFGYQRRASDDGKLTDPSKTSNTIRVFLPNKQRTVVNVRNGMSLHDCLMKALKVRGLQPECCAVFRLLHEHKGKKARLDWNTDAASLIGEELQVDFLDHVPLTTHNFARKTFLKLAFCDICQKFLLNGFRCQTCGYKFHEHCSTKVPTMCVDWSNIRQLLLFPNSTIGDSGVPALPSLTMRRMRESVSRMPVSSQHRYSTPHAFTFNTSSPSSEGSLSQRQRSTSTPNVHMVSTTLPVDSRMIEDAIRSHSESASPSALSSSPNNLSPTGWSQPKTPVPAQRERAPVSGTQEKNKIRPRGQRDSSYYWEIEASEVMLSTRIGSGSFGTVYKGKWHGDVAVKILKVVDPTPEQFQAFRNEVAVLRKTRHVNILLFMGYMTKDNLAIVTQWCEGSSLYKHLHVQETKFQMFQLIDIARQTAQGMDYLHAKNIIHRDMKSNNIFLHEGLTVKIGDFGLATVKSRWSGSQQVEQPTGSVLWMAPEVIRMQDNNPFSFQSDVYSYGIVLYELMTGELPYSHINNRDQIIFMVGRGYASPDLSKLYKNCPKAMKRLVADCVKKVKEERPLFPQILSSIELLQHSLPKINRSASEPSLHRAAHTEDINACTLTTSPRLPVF
Protocol: as §1

BRAF (V600E) [2] = biological target: T1, BRAF (V600E) (Homo sapiens, UniProt P15056, V600E); test: Kinase panel screening; assay type: biochemical; details: 10 μM concentration
T1 sequence (P15056 whole entry V600E): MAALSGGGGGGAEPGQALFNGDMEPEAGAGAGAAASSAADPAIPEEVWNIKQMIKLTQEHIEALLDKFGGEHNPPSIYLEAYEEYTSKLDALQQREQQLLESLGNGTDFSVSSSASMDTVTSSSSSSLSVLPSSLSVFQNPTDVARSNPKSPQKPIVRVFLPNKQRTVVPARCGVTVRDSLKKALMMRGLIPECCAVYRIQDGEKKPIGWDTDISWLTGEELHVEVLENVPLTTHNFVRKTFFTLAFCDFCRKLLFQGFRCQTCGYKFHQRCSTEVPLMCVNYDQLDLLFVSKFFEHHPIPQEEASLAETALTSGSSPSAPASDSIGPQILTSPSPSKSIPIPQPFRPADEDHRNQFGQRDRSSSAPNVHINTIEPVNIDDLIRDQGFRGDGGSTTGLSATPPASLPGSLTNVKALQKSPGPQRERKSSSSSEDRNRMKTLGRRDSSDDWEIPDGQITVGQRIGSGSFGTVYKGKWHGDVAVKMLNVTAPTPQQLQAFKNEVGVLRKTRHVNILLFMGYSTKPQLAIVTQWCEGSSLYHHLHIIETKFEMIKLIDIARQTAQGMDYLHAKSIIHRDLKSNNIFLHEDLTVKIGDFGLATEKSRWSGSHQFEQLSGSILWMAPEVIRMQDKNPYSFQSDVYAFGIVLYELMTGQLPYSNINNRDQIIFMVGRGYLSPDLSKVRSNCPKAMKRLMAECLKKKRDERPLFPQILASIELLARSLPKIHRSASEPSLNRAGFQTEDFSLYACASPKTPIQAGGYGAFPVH
Protocol: as §1

LYN = LYN (Homo sapiens, UniProt P07948); test: Kinase panel screening; assay type: biochemical; details: 10 μM concentration; read-out: Inhibition Rate (Unit: %) LYN
Protocol: as §1

JNK3 = JNK3 (Homo sapiens, UniProt P53779); test: Kinase panel screening; assay type: biochemical; details: 10 μM concentration; read-out: Inhibition Rate (Unit: %) JNK3
Protocol: as §1

c-Kit = c-Kit (Homo sapiens, UniProt P10721); test: Kinase panel screening; assay type: biochemical; details: 10 μM concentration; read-out: Inhibition Rate (Unit: %) c-Kit
Protocol: as §1

BTK = BTK (Homo sapiens, UniProt Q06187); test: Kinase panel screening; assay type: biochemical; details: 10 μM concentration; read-out: Inhibition Rate (Unit: %) BTK
Protocol: as §1

ERK1 = ERK1 (Homo sapiens, UniProt P27361); test: Kinase panel screening; assay type: biochemical; details: 10 μM concentration; read-out: Inhibition Rate (Unit: %) ERK1
Protocol: as §1

LCK = LCK (Homo sapiens, UniProt P06239); test: Kinase panel screening; assay type: biochemical; details: 10 μM concentration; read-out: Inhibition Rate (Unit: %) LCK
LCK, sequence (P06239 whole entry, species assumed): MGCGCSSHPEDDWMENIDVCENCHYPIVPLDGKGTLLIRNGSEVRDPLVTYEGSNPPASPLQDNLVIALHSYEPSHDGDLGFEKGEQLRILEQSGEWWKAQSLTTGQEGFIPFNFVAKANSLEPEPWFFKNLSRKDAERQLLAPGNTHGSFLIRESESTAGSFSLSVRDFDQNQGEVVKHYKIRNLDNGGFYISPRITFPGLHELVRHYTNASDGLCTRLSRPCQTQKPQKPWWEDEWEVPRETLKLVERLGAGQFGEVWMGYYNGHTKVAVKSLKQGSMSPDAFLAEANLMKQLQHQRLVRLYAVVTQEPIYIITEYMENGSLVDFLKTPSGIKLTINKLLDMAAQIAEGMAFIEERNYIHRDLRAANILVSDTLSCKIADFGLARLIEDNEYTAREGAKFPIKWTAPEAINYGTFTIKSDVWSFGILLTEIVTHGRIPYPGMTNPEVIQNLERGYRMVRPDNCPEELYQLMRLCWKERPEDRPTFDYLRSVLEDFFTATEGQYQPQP
Protocol: as §1

c-MET = c-MET (Homo sapiens, UniProt P08581); test: Kinase panel screening; assay type: biochemical; details: 10 μM concentration; read-out: Inhibition Rate (Unit: %) c-MET
Protocol: as §1

ABL1 = ABL1 (Homo sapiens, UniProt P00519); test: Kinase panel screening; assay type: biochemical; details: 10 μM concentration; read-out: Inhibition Rate (Unit: %) ABL1
Protocol: as §1

cRAF1 = cRAF1 (Homo sapiens, UniProt P04049); test: Enzymatic activity (IC50) to kinases; assay type: biochemical; details: read-out: IC50 (Unit: nM) cRAF1
[3] = tested on: A375P human melanoma cell line; test: Antiproliferative activity to A375P human melanoma cell line; assay type: cell-based
Protocol: (§2) The antiproliferative activity of the compounds of Examples to A375P human melanoma cell line and U937 human leukemic monocyte lymphoma cell line are evaluated and listed in the following Table 1.

wild-type BRAF = wild-type BRAF (Homo sapiens, UniProt P15056); test: Enzymatic activity (IC50) to kinases; assay type: biochemical; details: read-out: IC50 (Unit: nM) BRAF
wild-type BRAF, sequence (P15056 whole entry): as the sequence (P15056 whole entry V600E) above, with E600V counted along it

[4] = tested on: U937 human leukemic monocyte lymphoma cell line; test: Antiproliferative activity to U937 human leukemic monocyte lymphoma cell line; assay type: cell-based
Protocol: as §2

BRAF (V600E) [5] = biological target: T1, BRAF (V600E); test: Enzymatic activity (IC50) to kinases; assay type: biochemical; details: read-out: IC50 (Unit: nM) BRAF (V600E)

With `C[C@H](O)CNc1nccc(-n2ccnc2Cc2cccc(NC(=O)Nc3ccc(C(F)(F)F)c(Cl)c3)c2)n1` [Example 23, (S)-1-(3-chloro-4-(trifluoromethyl)phenyl)-3-(3-((1-(2-((2-hydroxypropyl)amino)pyrimidin-4-yl)-1H-imidazol-2-yl)methyl)phenyl)urea] the “inhibition rate to most other kinases” value [1] was “less than 30%”, the inhibition at 10 µM (SYK) was 0% and the inhibition at 10 µM (FLT3) was 68.4%. It also gave an inhibition at 10 µM (GSK3b) of 34.5%, an inhibition at 10 µM (Aurora A) of 17.6% and an inhibition at 10 µM (CDK1/cyclin B) of 34.8%. For the same compound, the inhibition at 10 µM (mTOR/FRAP1) was 0%, the inhibition at 10 µM (RON/MST1R) was 0.42% and the inhibition at 10 µM (IGF1R) was 0%. The inhibition at 10 µM (c-Src) was 2.1%, the inhibition at 10 µM (MEK1) was 0% and the inhibition at 10 µM (P38a/MAPK14) was 94.3%. The inhibition at 10 µM (ROS/ROS1) was 0.73%, the inhibition at 10 µM (FGFR3) was 3.5% and the “Inhibition Rate (Unit: %) PKA” value (PKA) was 0%. The “Inhibition Rate (Unit: %) RAF1” value (RAF1; 10 µM) was 98.7%, the inhibition at 10 µM (RAF1; read-out: Inhibition Rate (Unit: %) RAF1) was 99% and the “Inhibition Rate (Unit: %) BRAF (V600E)” value (BRAF (V600E) [2]; 10 µM) was 96.1%. It also gave an inhibition at 10 µM (BRAF (V600E) [2]; read-out: Inhibition Rate (Unit: %) BRAF (V600E)) of 99%, an inhibition at 10 µM (LYN) of 8.1% and an inhibition at 10 µM (JNK3) of 0%. For the same compound, the inhibition at 10 µM (c-Kit) was 63.8%, the inhibition at 10 µM (BTK) was 0% and the inhibition at 10 µM (ERK1) was 0%. For the same compound, the inhibition at 10 µM (LCK) was 5.8%, the inhibition at 10 µM (c-MET) was 17.6% and the inhibition at 10 µM (ABL1) was 6.9%. For the same compound, the IC50 (cRAF1) was 8.79 nM, the “potency against A375P, in words” value ([3]; A375P cell line, comparison with Sorafenib) was “large potencies; also recorded: better potencies than Sorafenib” and the GI50 ([3]; A375P human melanoma cell line, read-out: A375P (GI50, Unit: μM)) was 1.82 µM. The IC50 (wild-type BRAF) was 186 nM, the “potency against U937, in words” value ([4]; U937 cell line, comparison with Sorafenib) was “large potencies; also recorded: better potencies than Sorafenib” and the GI50 ([4]; U-937, U937 human leukemic monocyte lymphoma cell line, read-out: U937 (GI50, Unit: μM)) was 2.73 µM. It also gave an IC50 (BRAF (V600E) [5]) of 38.3 nM.
